# Columns and labels:
# haemoglobin [1] = molecular target: T1, haemoglobin (Homo sapiens, UniProt P68871+P69905); assay: Uptake of 65Zn from 2:1 zinc(II) complexes by haemoglobin in human erythrocytes; type: cell-based; conditions: 2:1 zinc complex 5 x 10^-4M with excess ligand, 1 hour, 37° C., pH 7.4, human erythrocytes
# T1 construct: A 5% suspension of human erythrocytes in aqueous sodium chloride; endogenous in cells; host or cells: human erythrocytes (intact, 5% suspension)
# Method: (§1) Uptake of zinc from complexes by haemoglobin (1) A 5% suspension of human erythrocytes in aqueous sodium chloride (b 130 mM) buffered to pH 7.4 by 20 mM Tris hydrochloride (2 ml) was incubated for 1 hour at 37° C. with the 2:1 zinc(II) complex in the presence of an excess of the ligand-forming compound. The complex was formed in situ in the buffer using ^65 Zn labelled ZnSO4 at a concentration selected over a range from 1×10^-6 to 4×10^-3 M compound at ten times this concentration and a small amount of Tris free base (to about 2 mM) added to the medium to avoid an acid pH on reaction of the ZnSO4 and the compound to form the complex. Following the period of incubation, an aliquot of the erythrocyte/medium mixture was placed above a layer of silicone oil and the erythrocytes separated by […] centrifugation through the oil. The ^65 Zn levels associated with the erythrocytes and the incubation medium were then counted and the distribution ratio (concentration in erythrocytes/concentration in medium) calculated. The average distribution ratios of zinc obtained in a series of experiments for the homogeneous 2:1 complex from the ligand-providing compounds 3-hydroxy-2methyl-4-pyrone, 2-ethyl-3-hydroxy-4-pyrone and 3-hydroxy-2-(1'-methylethyl)-4-pyrone at a concentration of 5 x 10^-4M are shown in Table 1 together with the percentage of the total amount of zinc which is absorbed in the erythrocytes.
# haemoglobin [2] = assay: Donation of zinc to haemoglobin, elution profile of 65Zn label on PD-10 column; type: binding
# Method: There was no evidence of any saturation of the rate of uptake over the concentration range studied so that the complex is not actively transported and, in order to account for the high distribution ratios observed, the zinc must therefore dissociate from the complex and bind to a macromolecule or membrane associated with the erythrocyte. The experiment just described was repeated at a concentration of 2.5 mM ^65 ZnSO4 and 25 mM 2-ethyl-3-hydroxy-4-pyrone using erythrocyte ghosts in which the haemoglobin is lacking rather than whole erythrocytes. […] (2) The ability of the zinc(II) complex of 2-ethyl-3-hydroxy-4-pyrone to donate zinc to haemoglobin was investigated by [j studying the elution profile of the ^65 Zn label when a mixture of haemoglobin and the ^65 Zn-labelled complex (at 1 mM concentration)in NaCI (130 mM) buffered to pH 7.4 by Tris hydrochloride is applied to a PD-10 colum (Sephadex […] gel permeation column - Pharmacia).
# erythrocyte ghosts = assay: Uptake of 65Zn by erythrocyte ghosts lacking haemoglobin; type: cell-based, human; conditions: 2.5 mM 65ZnSO4 and 25 mM 2-ethyl-3-hydroxy-4-pyrone
# Method: as §1, with “The average distribution ratios of zinc obtained in a series of experiments for the homogeneous 2:1 complex from the ligand-providing compounds 3-hydroxy-2methyl-4-pyrone, 2-ethyl-3-hydroxy-4-pyrone and 3-hydroxy-2-(1'-methylethyl)-4-pyrone at a concentration of 5 x 10^-4M are shown in Table 1 together with the percentage of the total amount of zinc which is absorbed in the erythrocytes.” left out
# [3] = system: DPG depleted erythrocytes; assay: Oxygen dissociation curve / oxygen affinity, DPG depleted erythrocytes; type: cell-based, human; conditions: 2.5 mM ZnSO4 + 25 mM pyrone, Zn:Hb 2:1; control 15.75
# Method: (§2) (1) A 50% suspension of human erythrocytes in pH 7.09 8BisTris/NaCl buffer005M BisTris(bis(2-hydroxyethyl)imino-tris(hydroxymethyl)methane and 0.13M NaCl was incubated for 15 minutes at 37° C. with the 2:1 zinc(II) complex of 2-ethyl-3-hydroxy-4-pyrone in the presence of an excess of the ligand-forming compound, the complex being formed in situ using zinc sulphate and a 10 molar excess of 2-ethyl-3-hydroxy-4-pyrone (to provide the 2:1 complex and an 8 molar excess of the pyrone). The oxygen dissociation curve of the erythrocytes was then determined using the method of Bellingham and Huehns (Nature, -968, 218, 924-926) which involves measuring the change of OD at two wavelengths (570 and 555 nm) after the sequential measured addition of oxygen in a tanometer. The experiment was conducted using normal erythrocytes, 2,3-diphosphoglyceric acid (DPG) depleted erythrocytes, foetal erythocytes and sickle erythrocytes. A 2.5 mM concentration of zinc was employed in each case together with a proportion of erythrocytes such as to provide a 2:1 ratio of zinc:haemoglobin and consequent saturation of the haemoglobin by zinc, except in one experiment where the proportion was varied to provide a ratio varying from 0.5:1 to 2:1. […]
# Foetal erythrocytes = assay: Oxygen dissociation curve / oxygen affinity, foetal erythrocytes; type: cell-based, human
# Method: as §2
# Normal erythrocytes = assay: Oxygen dissociation curve / oxygen affinity, normal erythrocytes; type: cell-based, human
# Method: (§3) (1) A 50% suspension of human erythrocytes in pH 7.09 8BisTris/NaCl buffer005M BisTris(bis(2-hydroxyethyl)imino-tris(hydroxymethyl)methane and 0.13M NaCl was incubated for 15 minutes at 37° C. with the 2:1 zinc(II) complex of 2-ethyl-3-hydroxy-4-pyrone in the presence of an excess of the ligand-forming compound, the complex being formed in situ using zinc sulphate and a 10 molar excess of 2-ethyl-3-hydroxy-4-pyrone (to provide the 2:1 complex and an 8 molar excess of the pyrone). The oxygen dissociation curve of the erythrocytes was then determined using the method of Bellingham and Huehns (Nature, -968, 218, 924-926) which involves measuring the change of OD at two wavelengths (570 and 555 nm) after the sequential measured addition of oxygen in a tanometer. The experiment was conducted using normal erythrocytes, 2,3-diphosphoglyceric acid (DPG) depleted erythrocytes, foetal erythocytes and sickle erythrocytes. A 2.5 mM concentration of zinc was employed in each case together with a proportion of erythrocytes such as to provide a 2:1 ratio of zinc:haemoglobin and consequent saturation of the haemoglobin by zinc, except in one experiment where the proportion was varied to provide a ratio varying from 0.5:1 to 2:1. In each case a control was carried out in the absence of any zinc sulphate or 2-ethyl-3-hydroxy-4-pyrone and in one case two additional controls were carried out in the presence of one of these compounds used alone. The values for p(O2)50 (i.e. the oxygen pressure at which 50% of the haemoglobin is in the oxygenated form) obtained in each case are shown in Table 2 (together with the inferred Zn:Hb ratio) from which it will be seen that the oxygen affinity of normal erythrocytes, and also of sickle erythrocytes, is increased through treatment of the cells with zinc(II) (2-ethyl-3-hydroxy-4-pyrone)2. Foetal erythrocytes, which contain Hb-F and therefore show different characteristics from normal eythrocytes which contain Hb-A, were as expected not affected. […] With sickle erythrocytes the effect is even more marked as is further illustrated in (2) below.
# (§4) (2) The effect of the 2:1 2-ethyl-3-hydroxy-4-pyrone:zinc(II) complex on normal and sickle erythrocytes was further compared using a basically similar procedure to that described in (-) above. Concentrations of 2.5 mM ZnSO4 and 25 mM pyrone, and a 2:1 Zn:Hb ratio were again used but the incubation period was extended to 1 hour. In each case a control experiment was carried out in the absence of any zinc sulphate or pyrone.
# (3) The effect of different concentrations of the 2:1 2-ethyl-3-hydroxy-4-pyrone:zinc(II) complex upon normal erythrocytes was studied using a basically similar procedure to that described in (l) above but with ZnSO4 concentrations of 0.1, 1 and 10 mM (and ten times these concentrations of the pyrone) and extending the incubation period to 1 hour. A control experiment was carried out in the absence of any zinc sulphate or pyrone.
# Sickle erythrocytes = assay: Oxygen dissociation curve / oxygen affinity, sickle erythrocytes; type: cell-based, human
# Method: as §3, §4
# T1 sequence (P69905 2-142 limits assumed): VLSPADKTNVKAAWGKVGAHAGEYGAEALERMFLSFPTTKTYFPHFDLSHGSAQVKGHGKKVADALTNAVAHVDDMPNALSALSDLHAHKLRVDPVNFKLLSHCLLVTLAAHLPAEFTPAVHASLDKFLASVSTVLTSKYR
# T1 sequence (P68871 2-147 limits assumed): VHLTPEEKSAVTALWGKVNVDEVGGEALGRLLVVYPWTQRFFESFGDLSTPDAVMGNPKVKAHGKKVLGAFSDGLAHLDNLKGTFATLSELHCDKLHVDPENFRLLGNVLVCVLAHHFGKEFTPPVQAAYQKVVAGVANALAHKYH
compound,measurement,setting,value
Cc1occc(=O)c1[O-].Cc1occc(=O)c1[O-].[Zn+2] [zinc(II) (3-hydroxy-2-methyl--pyrone)2],Distribution ratio (concentration in erythrocytes/concentration in medium),haemoglobin [1],8
same,Percentage of zinc absorbed,haemoglobin [1],54%
CCc1occc(=O)c1[O-].CCc1occc(=O)c1[O-].[Zn+2] [zinc(II) (2-ethyl-3-hydroxy-4-pyrone)2],Distribution ratio (concentration in erythrocytes/concentration in medium),haemoglobin [1],300
same,Percentage of zinc absorbed,haemoglobin [1],96%
same,binding of zinc to haemoglobin (in words),"haemoglobin [2]; 1 mM complex, 20-fold molar proportion of ligand:zinc, NaCl 130 mM, pH 7.4",the zinc is found to bind tightly to haemoglobin
same,binding of zinc to haemoglobin versus ligand (in words),haemoglobin [2]; haemoglobin versus 2-ethyl-3-hydroxy-4-pyrone,zinc binds more tightly to haemoglobin than to 2-ethyl-3-hydroxy-4-pyrone
same,uptake of zinc by erythrocyte ghosts (in words),erythrocyte ghosts,Only a low level of uptake of zinc was observed
same,P(O2)50,[3],9.25 mmHg
same,P(O2)50,"Foetal erythrocytes; 2.5 mM ZnSO4 + 25 mM pyrone, Zn:Hb 0:1 (assumed no uptake by HbF), control 22",24 mmHg
same,oxygen affinity (in words),"Foetal erythrocytes; foetal erythrocytes, 2.5 mM zinc, 15 minutes",not affected
same,P(O2)50,"Normal erythrocytes; 2.5 mM ZnSO4 + 25 mM pyrone, Zn:Hb 0.5:1, control 30.0",23.5 mmHg
same,P(O2)50,"Normal erythrocytes; 2.5 mM ZnSO4 + 25 mM pyrone, Zn:Hb 1:1, control 30.0",17.0 mmHg
same,P(O2)50,"Normal erythrocytes; 2.5 mM ZnSO4 + 25 mM pyrone, Zn:Hb 1.5:1, control 30.0",15.0 mmHg
same,P(O2)50,"Normal erythrocytes; 2.5 mM ZnSO4 + 25 mM pyrone, Zn:Hb 2:1, control 26",15.5 mmHg
same,P(O2)50,"Normal erythrocytes; 2.5 mM ZnSO4 + 25 mM pyrone, Zn:Hb 2:1, control 27.5",15 mmHg
same,P(O2)50,"Normal erythrocytes; 2.5 mM ZnSO4 + 25 mM pyrone, Zn:Hb 2:1, control 30.0",15.0 mmHg
same,shift in the oxygen dissociation curve (in words),"Normal erythrocytes; 2.5 mM ZnSO4, 25 mM pyrone, 1 hour, FIG. 1a",a significant left shift in the oxygen dissociation curve
same,"p(O2)50, treated cells","Normal erythrocytes; 2.5 mM ZnSO4 and 25 mM pyrone, Zn:Hb 2:1, 1 hour (FIG. 1a), control 27.5",15.0 mm Hg
same,p(O2)50 shift,"Normal erythrocytes; 2.5 mM ZnSO4 and 25 mM pyrone, Zn:Hb 2:1, 1 hour, versus control, normal erythrocytes",12.5 mm Hg
same,dose response of shift in the oxygen dissociation curve (in words),"Normal erythrocytes; ZnSO4 0.1, 1 and 10 mM with ten times pyrone, 1 hour, FIG. 2",dose response effect
same,shift in the oxygen dissociation curve (in words),"Normal erythrocytes; complex 0.1 mM, 1 hour, FIG. 2",still a discernible left shift in the oxygen dissociation curve
same,oxygen affinity (in words),"Normal erythrocytes; normal erythrocytes, 2.5 mM zinc, 15 minutes",increased
same,P(O2)50,"Sickle erythrocytes; 2.5 mM ZnSO4 + 25 mM pyrone, Zn:Hb 2:1, control 36",18.5 mmHg
same,shift in the oxygen dissociation curve (in words),"Sickle erythrocytes; 2.5 mM ZnSO4, 25 mM pyrone, 1 hour, FIG. 1b",a significant left shift in the oxygen dissociation curve is produced in both cases but that the difference from the control is more marked for the sickle erythrocytes
same,"p(O2)50, treated cells","Sickle erythrocytes; 2.5 mM ZnSO4 and 25 mM pyrone, Zn:Hb 2:1, 1 hour (FIG. 1b), control 36.0",18.5 mm Hg
same,p(O2)50 shift,"Sickle erythrocytes; 2.5 mM ZnSO4 and 25 mM pyrone, Zn:Hb 2:1, 1 hour, versus control, sickle erythrocytes",17.5 mm Hg
same,oxygen affinity (in words),"Sickle erythrocytes; sickle erythrocytes, 2.5 mM zinc, 15 minutes",increased
"CCc1occc(=O)c1O [pyrone, 2-ethyl-3-hydroxy-4-pyrone, reference compound]",P(O2)50,"Normal erythrocytes; 2.5 mM pyrone alone, Zn:Hb 0:1, control 26",28 mmHg
"O=S(=O)([O-])[O-].[Zn+2] [ZnSO4, zinc sulphate, reference compound]",P(O2)50,"Normal erythrocytes; 2.5 mM ZnSO4 alone, Zn:Hb 2:1, control 26",24.5 mmHg
CC(C)c1occc(=O)c1[O-].CC(C)c1occc(=O)c1[O-].[Zn+2] [zinc(II) (3-hydroxy-2-(2'-methylethyl)-4-pyrone)2],Distribution ratio (concentration in erythrocytes/concentration in medium),haemoglobin [1],550
same,Percentage of zinc absorbed,haemoglobin [1],98%

# Source: patent publication US4866052A, “Treatment of sickle cell disease” (National Research Development Corporation, priority 1986, dated 1989)
